# In patent US4012284A (Societa' Farmaceutici Italia, S.p.A., priority 1962, dated 1977):
# What was measured:
# [1] = test system: Oberling-Guerin-Guerin myeloma; test: Oberling-Guerin-Guerin myeloma (solid) in rats, successive experiment (Table XI); format: in vivo, rat
# Excerpt: (§1) At least 20 animals per lot were used.
# The checking of the activity on solid tumors has been carried out with Ehrlich adenocarcinoma and sarcoma 180 in the mouse and with Walker carcinosarcoma and the Oberling-Guerin-Guerin myeloma in the rat. […]
# Walker carcinosarcoma [2] = test: Walker carcinosarcoma in rats (Table VIII); format: in vivo, rat; details: for % Inhibition (tumor growth) / Average tumor weight / Mortality / Body weight change, not [net] / Body weight change, gross: 8 times within 10 days; for % Inhibition (tumor growth) / Average tumor weight: 11th day; for Average tumor weight: controls 15.940; for Mortality: controls 1/10; for Body weight change, not [net]: controls +6.96; for Body weight change, gross: controls +22.9
# Excerpt: as §1
# (§2) The checking of the activity on solid tumors has been carried out with Ehrlich adenocarcinoma and sarcoma 180 in the mouse and with Walker carcinosarcoma and the Oberling-Guerin-Guerin myeloma in the rat.
# The rats grafted with this tumor have been treated intravenously 8 times within 10 days; at the 11th day of experiment, the surviving animals were killed and the tumors removed.
# Ehrlich adenocarcinoma = Ehrlich adenocarcinoma (solid) in mice (Table VI); format: in vivo, mouse; details: controls 0/10
# Hepatoma AH 130 = test: Ascitic hepatoma AH 130 in Wistar rats; format: in vivo, Wistar rat; details: 2 and 1 mg/kg/day intraperitoneally, 5 days, after 50 days of the experiment
# Description: as §1
# (§3) Activity tests were carried out on mice, bearing Ehrlich ascitic carcinoma and on rats, which are grafted with hepatoma AH 130 and Oberling-Guerin-Guerin myeloma.
# Wistar rats, grafted with accitic hepatoma have been treated intraperitoneously for 5 consecutive days with antibiotic doses of 2 and 1 mg/kg/day.
# [3] = test system: Ehrlich ascitic carcinoma; test: Ehrlich ascitic carcinoma in mice (Table III); format: in vivo, mouse; details: for Body weight increase / Average survival time: 5 days; for Average survival time: controls 16.4
# Description: as §1, §3
# (§4) Mice are grafted intraporitoneally with a suspension of tumor cells and treated with solutions of different concentrations of the antibiotic for five consecutive days starting from the day following the tumor implantation.
# Sarcoma 180 = Sarcoma 180 (solid) in mice (Table VII); format: in vivo, mouse; details: 2 mg/kg/day intraperitoneally, 7 days
# Description: as §1, §2
# Mice grafted with a fragment of neoplastic tissue have been treated intraperitoneally for seven consecutive days, starting from the day following the tumor implantation. The antibiotic was administered in solution at a dose of 2 mg/kg/day. At the tenth day of experiment, all the mice were killed and the tumors and spleens were removed.
# [4] = test system: Oberling-Guerin-Guerin myeloma; test: Oberling-Guerin-Guerin myeloma (solid) in Long-Evans rats (Table X); details: 10 days; for % Inhibition (tumor growth) / Average tumor weight: 13th day; for Average tumor weight: controls 17.23; for Mortality: controls 3/12; for Body weight change, not [net]: controls +28.-; for Body weight change, gross: controls +45.2
# [5] = test system: Ehrlich ascitic carcinoma; test: Ehrlich ascitic carcinoma, second experiment, intravenous (Table IV); format: in vivo, mouse; details: 1.75 mg/kg/day intravenously, 4 days
# Description: as §1, §3, §4
# The result has been confirmed by a successive experiment in which the antibiotic has been administered at the dose of 1.75 mg/kg intravenously for 4 days (Table IV).
# Acute toxicity, mouse = details: in vivo
# Excerpt: (§5) In the following Table the acute toxicity of Daunomycin as LD50 is reported.
# Walker carcinosarcoma [6] = test: Walker carcinosarcoma in rats, second experiment (Table IX); format: in vivo, rat; details: 3 mg/kg/day intravenously
# Description: as §1, §2
# A second experiment with rats, bearing the same tumor, has been carried out to investigate the effect of the antibiotic on the animals' survival besides the antitumor activity. In this case the rats were treated intravenously 8 times within 12 days at the dose of 3 mg/kg/day.
# [7] = test system: tumors, ascitic and solid; test: Antitumor activity on standard experimental animals (summary statements); format: in vivo, mouse and rat
# Excerpt: as §1
# [8] = test system: Ascitic myeloma (Oberling-Guerin-Guerin myeloma); test: Ascitic myeloma (Oberling-Guerin-Guerin) in Wistar rats (Table V); format: in vivo, rat; details: for Average survival time: controls 10.7
# Description: as §1, §3
# This experiment was carried out on Wister rats, which have been grafted with a suspension of tumor cells and then have been treated intraperitoneously with a solution of the antibiotic according to the following scheme: one group three times on alternate days with a dose equal to 2 mg/kg/day; another group for 5 consecutive days with a dose of 1 mg/kg/day.
# Acute toxicity, rat = details: in vivo
# Excerpt: as §5
# Solubility = format: physicochemical
# several microorganisms = test: Bacteriostatic activity / antimicrobial spectrum (summary statements); format: cell-based
# [9] = 2.5 mg/kg/day intravenously, 7 times within 14 days
smiles,measurement,setting,value
COc1cccc2c1C(=O)c1c(O)c3c(c(O)c1C2=O)C[C@@](O)(C(C)=O)C[C@@H]3O[C@H]1C[C@H](N)[C@H](O)[C@H](C)O1 [F.I. 1762],"% Inhibition, spleen",[1]; [9],54.1%
same,"% Inhibition, tumor",[1]; [9],69.5%
same,"Average weight, spleen","[1]; 2.5 mg/kg/day intravenously, 7 times within 14 days, controls 1.303",0.598 grams
same,Mortality,"[1]; 2.5 mg/kg/day intravenously, 7 times within 14 days, controls 5/15",5/15
same,"Average weight, tumor","[1]; 2.5 mg/kg/day intravenously, 7 times within 14 days, controls 13.486",4.114 grams
same,"Body weight change, not [net]","[1]; 2.5 mg/kg/day intravenously, 7 times within 14 days, controls +40.22",+16.79 grams
same,"Body weight change, gross","[1]; 2.5 mg/kg/day intravenously, 7 times within 14 days, controls +53.7",+20.9 grams
same,tolerance of the antibiotic,"[1]; Tables X and XI, 2 mg and 2.5 mg/kg/day intravenously",good tolerance
same,activity against this kind of tumor,"[1]; Tables X and XI, 2 mg and 2.5 mg/kg/day intravenously produced the best results",active also against this kind of tumor
same,% Inhibition (tumor growth),Walker carcinosarcoma [2]; 1 mg/kg/day intravenously,42.1%
same,Average tumor weight,Walker carcinosarcoma [2]; 1 mg/kg/day intravenously,9.443 grams
same,Mortality,Walker carcinosarcoma [2]; 1 mg/kg/day intravenously,1/10
same,"Body weight change, not [net]",Walker carcinosarcoma [2]; 1 mg/kg/day intravenously,+0.76 grams
same,"Body weight change, gross",Walker carcinosarcoma [2]; 1 mg/kg/day intravenously,+10.2 grams
same,tolerance,Walker carcinosarcoma [2]; 2 mg/kg/day intravenously,tolerated
same,% Inhibition (tumor growth),Walker carcinosarcoma [2]; 2 mg/kg/day intravenously,66.1%
same,Average tumor weight,Walker carcinosarcoma [2]; 2 mg/kg/day intravenously,5.404 grams
same,Mortality,Walker carcinosarcoma [2]; 2 mg/kg/day intravenously,1/10
same,"Body weight change, not [net]",Walker carcinosarcoma [2]; 2 mg/kg/day intravenously,+22.25 grams
same,"Body weight change, gross",Walker carcinosarcoma [2]; 2 mg/kg/day intravenously,+27.9 grams
same,effect on this type of tumor,Walker carcinosarcoma [2]; especially with 2 mg/kg/day intravenously,marked inhibitory effect
same,Mortality,Ehrlich adenocarcinoma; 3 mg/kg/day,0/10
same,Mortality,Ehrlich adenocarcinoma; 6 mg/kg/day,0/10
same,trace of tumor,Hepatoma AH 130,In none of them was any trace of tumor noticed
same,survival of treated rats,Hepatoma AH 130; controls average survival 11.8 days,all the treated rats were still alive after 50 days of the experiment
same,Body weight increase,"[3]; 0.75 mg/kg/day, 7 days after implantation, controls +9.6",+2.9 grams
same,Body weight increase,"[3]; 0.75 mg/kg/day, 14 days after implantation, controls +21.4",+5.3 grams
same,Body weight increase,"[3]; 1.25 mg/kg/day, 7 days after implantation, controls +9.6",+1.5 grams
same,Body weight increase,"[3]; 1.25 mg/kg/day, 14 days after implantation, controls +21.4",+3.1 grams
same,Body weight increase,"[3]; 1.25 mg/kg/day, 21 days after implantation",+4.4 grams
same,Average survival time,[3]; 1.25 mg/kg/day,32.0 days
same,Body weight increase,"[3]; 1.75 mg/kg/day, 7 days after implantation, controls +9.6",+1.3 grams
same,Body weight increase,"[3]; 1.75 mg/kg/day, 14 days after implantation, controls +21.4",+2.4 grams
same,Body weight increase,"[3]; 1.75 mg/kg/day, 21 days after implantation",+4.7 grams
same,Average survival time,[3]; 1.75 mg/kg/day,36.4 days
same,average survival rate of the treated animals,[3]; 1.75 and 1.25 mg/kg/day,increased considerably
same,effect on the ascitic tumor growth,[3]; 1.75 and 1.25 mg/kg/day,remarkable inhibitory effect on the ascitic tumor growth
same,spleen,Sarcoma 180,marked shrinkage of the spleen
same,tumor growth,Sarcoma 180,marked inhibition of tumor growth
same,Mortality,Sarcoma 180; controls 0/10,0/10
same,"Body weight change, not [net]",Sarcoma 180; controls +2.83,-3.01 grams
same,"Body weight change, gross",Sarcoma 180; controls +5.05,-1.72 grams
same,"% Inhibition, spleen",Sarcoma 180; tenth day,62.7%
same,"% Inhibition, tumor",Sarcoma 180; tenth day,42.1%
same,"Average weight, tumor","Sarcoma 180; tenth day, controls 2.225",1.289 grams
same,"Average weight, spleen","Sarcoma 180; tenth day, controls 251",93.5 milligrams
same,% Inhibition (tumor growth),[4]; 2 mg/kg/day intravenously,34.5%
same,Average tumor weight,[4]; 2 mg/kg/day intravenously,11.30 grams
same,Mortality,[4]; 2 mg/kg/day intravenously,0/12
same,"Body weight change, not [net]",[4]; 2 mg/kg/day intravenously,+20 grams
same,"Body weight change, gross",[4]; 2 mg/kg/day intravenously,+33.3 grams
same,% Inhibition (tumor growth),[4]; 4 mg/kg/day intravenously,82.8%
same,Average tumor weight,[4]; 4 mg/kg/day intravenously,2.98 grams
same,Mortality,[4]; 4 mg/kg/day intravenously,4/12
same,"Body weight change, not [net]",[4]; 4 mg/kg/day intravenously,+0.8 grams
same,"Body weight change, gross",[4]; 4 mg/kg/day intravenously,+3.8 grams
same,Body weight increase,"[5]; 7 days after implantation, controls +6.3",+0.1 grams
same,Body weight increase,"[5]; 12 days after implantation, controls +14.2",+2.2 grams
same,Average survival time,[5]; controls 12.4,35.1 days
same,LD50,"Acute toxicity, mouse; intravenous",20 mg/kg
same,LD50,"Acute toxicity, mouse; ip, intraperitoneal",5 mg/kg
same,increase of average survival,Walker carcinosarcoma [6]; 8 times within 12 days,50.8%
same,Tumor growth inhibition,"Walker carcinosarcoma [6]; 8 times within 12 days, 9th day",71.0 % of the control
same,Tumor growth inhibition,"Walker carcinosarcoma [6]; 8 times within 12 days, 29th day",31.6 % of the control
same,Average survival time,"Walker carcinosarcoma [6]; 8 times within 12 days, controls 16.9",25.5 days
same,tumor growth inhibition (in words),Walker carcinosarcoma [6]; 20 days after the injections were stopped,still continues in a remarkable degree
same,tumor growth inhibition (in words),Walker carcinosarcoma [6]; during the treatment,considerable during the treatment
same,effect in solid tumors,[7]; activity differs according to administration route and dose,Good inhibiting effect
same,effect on the tumor growth in ascitic form,[7]; immediate contact of the antibiotic and the neoplastic cells,marked inhibitory effect on the tumor growth in ascitic form
same,results by route and dose,"[7]; intravenous, doses between 2 and 3 mg/kg/body weight day",best results
same,usefulness as antitumoral,[7]; standard experimental animals,particularly useful as antitumoral
same,Average survival time,"[8]; 1 mg/kg/day intraperitoneally, 5 consecutive days",16.7 days
same,Average survival time,"[8]; 2 mg/kg/day intraperitoneally, three times on alternate days",17.7 days
same,diffusion of the tumor,"[8]; 2 mg/kg/day x 3 or 1 mg/kg/day x 5, intraperitoneally",a delay in the diffusion of the tumor has been observed
same,LD50,"Acute toxicity, rat; intravenous",13 to 15 mg/kg
same,LD50,"Acute toxicity, rat; ip, intraperitoneal",8 mg/kg
same,solubility,"Solubility; in alcohols, ketones, halogenated hydrocarbons, aqueous solutions of organic and inorganic acids",soluble
same,solubility,Solubility; in ethers and saturated hydrocarbons,practically insoluble
same,solubility in water,Solubility; water,slightly soluble
same,antimicrobial spectrum,several microorganisms,"embraces grampositive, gram-negative bacteria, fungi and protozoa"
same,bacteriostatic activity against several microorganisms,several microorganisms,remarkable bacteriostatic activity against several microorganisms
